Test system: FOXP3
Assay: Acetylation of chromatin-bound FOXP3 in HA-FOXP3a/3b transfected Jurkat T cells (immunoblot)
Type: cell-based, human
Details: 1 ng TGF-β per million cells; serum-starved Jurkat T cells; between 2 and 4 hours after exposure; anti-acetyl lys immunoblot; FIG. 10B
Method: FIG. 10B is an image of an immunoblot of untreated and TGF-β treated, human HA-FOXP3a/3b transfected Jurkat T cells. The transfected cells were stimulated with or without 1 ng TGF-β per million cells for indicated time periods. Equal amounts of proteins from chromatin rich fractions were separated by SDS-PAGE, transferred to nitrocellulose, and immunoblotted with anti-acetyl lys specific antibody (Ac-K-103, Santa Cruz) followed by reprobing with anti-HA-HRP conjugated antibody. Acetylated FOXP3a and FOXP3b proteins are marked.
The effect of TGF-β on the acetylation of FOXP3 was examined. Serum-starved human HA-FOXP3a/3b transfected Jurkat T cells were stimulated with or without 1 ng TGF-β per million cells for indicated time periods. Equal amounts of proteins from chromatin rich fractions were separated by SDS-PAGE, transferred to nitrocellulose, and immunoblotted with anti-acetyl lys specific antibody (Ac-K-103, Santa Cruz) followed by reprobing with anti-HA-HRP conjugated antibody (FIG. 9B).

## Transforming Growth Factor-β [TGF-β]
  chromatin-bound acetylated FOXP3: High levels of chromatin-bound acetylated FOXP3

From patent US8846308B2, “Method for identifying immune response modulators” (The Trustees of the University of Pennsylvania, priority 2007, dated 2014)
